# Measurements reported in patent US8278349B2, “Cancer treatment using FTS and 2-deoxyglucose” (Ramot at Tel-Aviv University Ltd., priority 2005, dated 2012).
# Legend:
# Mia Paca cells = conditions: cited from earlier work
# [1] = test system: primary pancreatic tumor cell line pp109; assay: Cell death by Hoechst 33258 staining, pp109; assay type: cell-based; conditions: single-drug or combined treatment
# Description: (§1) All materials for cell culture and determination of cell growth and death were detailed in earlier publications. [Blum, R., Jacob-[…]. and Kloog, Y., Cancer Res 65:999-1006 (2005); […]., Jacob-[…]. and Kloog, Y., Clin Cancer Res 11:4321-30 (2005)]. FTS was provided by Concordia Pharmaceuticals, Inc. 2DG was purchased from Sigma (cat #D3179). Cells were maintained in DMEM/10% FCS at a constant temperature of 37° C. in a humidified atmosphere of 95% air/5% CO2. Cells were plated in 1 ml DMEM/5% FCS at a density of 10,000 in 24 wells plates, and treated 24 hours (h) later with 50 μM or 75 μM FTS or with the vehicle (0.1% Me2SO). Forty-eight (48) h later the medium was replaced by a medium containing either 10 mM glucose or 5 mM glucose plus 5 mM 2DG. […] Following incubation for 24 or 48 h, as specified in each experiment, the cells were stained with Hoechst 33258 (1 μg/mL) to determine the extent of cell death; the cells were incubated with the reagent for 5 min and stained nuclei were visualized by a fluorescence microscope. […] Data were collected by imaging each well then analyzed as follows: the total number of cells was calculated of the phase contrast images and the number of dead cells was calculated of the fluorescence images. The percentage of Hoechst stained dead cells ([dead cells/total number of cells]×100) was calculated and presented as means±SD.
# [2] = test system: primary pancreatic tumor cell line pp161; assay: Cell number from phase contrast images, pp161; assay type: cell-based
# Description: (§2) All materials for cell culture and determination of cell growth and death were detailed in earlier publications. [Blum, R., Jacob-Hirsch, J., Amariglio, N., Rechavi, G. and Kloog, Y., Cancer Res 65:999-1006 (2005); Yaari, S., Jacob-Hirsch, J., Amariglio, N., Haklai, R., Rechavi, G. and Kloog, Y., Clin Cancer Res 11:4321-30 (2005)]. FTS was provided by Concordia Pharmaceuticals, Inc. 2DG was purchased from Sigma (cat #D3179). Cells were maintained in DMEM/10% FCS at a constant temperature of 37° C. in a humidified atmosphere of 95% air/5% CO2. Cells were plated in 1 ml DMEM/5% FCS at a density of 10,000 in 24 wells plates, and treated 24 hours (h) later with 50 μM or 75 μM FTS or with the vehicle (0.1% Me2SO). […] Following incubation for 24 or 48 h, as specified in each experiment, the cells were stained with Hoechst 33258 (1 μg/mL) to determine the extent of cell death; the cells were incubated with the reagent for 5 min and stained nuclei were visualized by a fluorescence microscope. […]
# (§3) All experiments were performed and repeated at least four times. Data were collected by imaging each well then analyzed as follows: the total number of cells was calculated of the phase contrast images and the number of dead cells was calculated of the fluorescence images. The percentage of Hoechst stained dead cells ([dead cells/total number of cells]×100) was calculated and presented as means±SD.
# [3] = test system: primary pancreatic tumor cell line pp109; assay: Cell number from phase contrast images, pp109; assay type: cell-based
# Description: as §2, §3
# [4] = test system: human glioblastoma cell line U373; assay: Cell number from phase contrast images, U373; assay type: cell-based; conditions: single or combined treatment
# Description: as §1
# [5] = test system: human glioblastoma cell line U373; assay: Cell death by Hoechst 33258 staining, U373; assay type: cell-based; conditions: single or combined treatment
# Description: as §1
# GBM cells = conditions: reported (Blum 2005; Yaari 2005); cited from earlier work
# [6] = test system: human glioblastoma cell line U87; assay: Cell number from phase contrast images, U87; assay type: cell-based; conditions: single or combined treatment
# Description: as §1
# [7] = test system: human glioblastoma cell line U87; assay: Cell death by Hoechst 33258 staining, U87; assay type: cell-based; conditions: single or combined treatment
# Description: as §1
# [8] = test system: primary pancreatic tumor cell line pp 78; assay: Cell number from phase contrast images, pp 78; assay type: cell-based
# Description: as §2, §3
# [9] = test system: pancreatic carcinoma cell line panc-1; assay: Cell death by Hoechst 33258 staining, panc-1; assay type: cell-based; conditions: for percentage of dead cells: panc-1
# Description: All materials for cell culture and determination of cell growth and death were detailed in earlier publications. [Blum, R., Jacob-[…]. and Kloog, Y., Cancer Res 65:999-1006 (2005); […]., Jacob-[…]. and Kloog, Y., Clin Cancer Res 11:4321-30 (2005)]. FTS was provided by Concordia Pharmaceuticals, Inc. 2DG was purchased from Sigma (cat #D3179). Cells were maintained in DMEM/10% FCS at a constant temperature of 37° C. in a humidified atmosphere of 95% air/5% CO2. Cells were plated in 1 ml DMEM/5% FCS at a density of 10,000 in 24 wells plates, and treated 24 hours (h) later with 50 μM or 75 μM FTS or with the vehicle (0.1% Me2SO). Forty-eight (48) h later the medium was replaced by a medium containing either 10 mM glucose or 5 mM glucose plus 5 mM 2DG. The FTS treated groups were replenished with the drug and the controls with 0.1% Me2SO. Following incubation for 24 or 48 h, as specified in each experiment, the cells were stained with Hoechst 33258 (1 μg/mL) to determine the extent of cell death; the cells were incubated with the reagent for 5 min and stained nuclei were visualized by a fluorescence microscope. Additionally, phase contrast images were taken. All experiments were performed and repeated at least four times. Data were collected by imaging each well then analyzed as follows: the total number of cells was calculated of the phase contrast images and the number of dead cells was calculated of the fluorescence images. The percentage of Hoechst stained dead cells ([dead cells/total number of cells]×100) was calculated and presented as means±SD.
# panc-1 cells = conditions: cited from earlier work
# [10] = test system: primary pancreatic tumor cell line pp 78; assay: Cell death by Hoechst 33258 staining, pp 78; assay type: cell-based; conditions: single-drug or combined treatment
# Description: as §1
# [11] = test system: pancreatic carcinoma cell line panc-1; assay: Cell number from phase contrast images, panc-1; assay type: cell-based
# Description: as §2, §3
# [12] = test system: primary pancreatic tumor cell line pp161; assay: Cell death by Hoechst 33258 staining, pp161; assay type: cell-based; conditions: single-drug or combined treatment
# Description: as §1
# [13] = previously shown (Kloog and Cox 2000)
smiles,measurement,setting,value
"CC(C)=CCC/C(C)=C/CC/C(C)=C/CSc1ccccc1C(=O)O [FTS, farnesylthiosalicylic acid]",cell death,Mia Paca cells; FTS alone,did not induce death
same,anchorage-dependent and anchorage-independent growth,Mia Paca cells; [13],inhibit anchorage-dependent and anchorage-independent growth
same,cell death above the levels observed in the controls,[1],induced death
same,decrease in the total number of cells,[2]; 75 μM FTS alone,~2 fold
same,decrease in the total number of cells,[3]; 75 μM FTS alone,~2 fold
same,total cell number,[4],induced a decrease in total cell number
same,cell death,[5],no significant increase in cell death
same,growth arrest and cell death,GBM cells,induce both growth arrest and cell death
same,total cell number,[6],induced a decrease in total cell number
same,cell death,[7],no significant increase in cell death
same,decrease in the total number of cells,[8]; 75 μM FTS alone,~2 fold
same,percentage of dead cells,[9]; 50 μM FTS alone (10 mM glucose),4%
same,percentage of dead cells,[9]; 75 μM FTS alone (10 mM glucose),7%
same,cell death,panc-1 cells; FTS alone,did not induce death
same,anchorage-dependent and anchorage-independent growth,panc-1 cells; [13],inhibit anchorage-dependent and anchorage-independent growth
same,cell death above the levels observed in the controls,[10],did not cause a significant increase in death
same,decrease in cell number,[11]; 75 μM FTS alone,~2 fold
same,cell death above the levels observed in the controls,[12],did not cause a significant increase in death
"OCC1OC(O)CC(O)C1O [2DG, 2-deoxy-D-glucose, reference compound]",cell death above the levels observed in the controls,[1],induced death
same,decrease in cell number,"[2]; 2DG alone, compared with FTS","decrease in cell number, but to a lower extent"
same,decrease in cell number,"[3]; 2DG alone, compared with FTS","decrease in cell number, but to a lower extent"
same,total cell number,[4],induced a decrease in total cell number
same,cell death,[5],no significant increase in cell death
same,total cell number,[6],induced a decrease in total cell number
same,cell death,[7],no significant increase in cell death
same,decrease in cell number,"[8]; 2DG alone, compared with FTS","decrease in cell number, but to a lower extent"
same,cell survival,"[9]; 2DG (5 mM) combined with equimolar glucose, cell death similar to controls (3%)",did not affect cell survival
same,percentage of dead cells,[9]; 2DG alone (5 mM glucose plus 5 mM 2DG),3%
same,cell death above the levels observed in the controls,[10],did not cause a significant increase in death
same,decrease in cell number,"[11]; 2DG alone, compared with FTS","decrease in cell number, but to a lower extent"
same,cell death above the levels observed in the controls,[12],did not cause a significant increase in death
